Results on two molecules are retold here after US20100093748A1, “SUBSTITUTED PIPERIDINES HAVING PROTEIN KINASE INHIBITING ACTIVITY” (ASTEX THERAPEUTICS LIMITED, priority 2006, published 2010).

In general, IC50 refers to the midpoint of a concentration-inhibition curve.

SMILES strings stand for the structures.

Assay [1] has as its target T1, PKB-PIF fusion protein (Homo sapiens, UniProt P31751).
T1 construct: PIF (fusion partner); made in house
Put plainly: Measurement of PKB kinase inhibitory activity (IC50), radiometric filter plate assay. The format is biochemical. The settings on record: 0.6 nM enzyme, 30 μM ATP, AKTide-2T substrate, 20 minutes. From the text:
The inhibition of protein kinase B (PKB) activity by compounds can be determined essentially as described by Andjelkovic et al. (Mol. Cell. Biol. 19, 5061-5072 (1999)) but using a fusion protein described as PKB-PIF and described in full by Yang et al (Nature Structural Biology 9, 940-944 (2002)). The protein is purified and activated with PDK1 as described by Yang et al. The peptide AKTide-2T (H-A-R-K-R-E-R-T-Y-S-F-G-H-H-A-OH) obtained from Calbiochem (#123900) is used as a substrate. A final concentration of 0.6 nM enzyme is used in a buffer that includes 20 mM MOPS pH 7.2, 30 μM ATP/γ^33P-ATP and 25 µM substrate. Compounds are added in DMSO solution to a final DMSO concentration of 2.5%. The reaction is allowed to proceed for 20 minutes before addition of excess orthophosphoric acid to quench activity. The reaction mixture is transferred to a phosphocellulose filter plate where the peptide binds and the unused ATP is washed away. After washing, scintillant is added and the incorporated activity measured by scintillation counting.
The % inhibition of the PKB activity is calculated and plotted in order to determine the concentration of test compound required to inhibit 50% of the PKB activity (IC50).

In assay [2] the target is T2, PKA catalytic domain (Homo sapiens, UniProt P17612).
T2 construct: using the PKA catalytic domain from Upstate Biotechnology (#14-440); purchased Upstate Biotechnology 14-440
Put plainly: Measurement of PKA kinase inhibitory activity (IC50), radiometric filter plate assay. The format is biochemical. The following applies: 1 nM enzyme, 40 μM ATP, 20 minutes. As to the method: Compounds of the invention can be tested for PK inhibitory activity using the PKA catalytic domain from Upstate Biotechnology (#14-440) and the 9 residue PKA specific peptide (GRTGRRNSI), also from Upstate Biotechnology (#12-257), as the substrate. A final concentration of 1 nM enzyme is used in a buffer that includes 20 mM MOPS pH 7.2, 40 μM ATP/γ^33P-ATP and […] substrate. Compounds are added in dimethylsulphoxide (DMSO) solution to a final DMSO concentration of 2.5%. The reaction is allowed to proceed for 20 minutes before addition of excess orthophosphoric acid to quench activity. Unincorporated γ^33P-ATP is then separated from phosphorylated proteins on a Millipore MAPH filter plate. The plates are washed, scintillant is added and the plates are then subjected to counting on a Packard Topcount.
The % inhibition of the PKA activity is calculated and plotted in order to determine the concentration of test compound required to inhibit 50% of the PKA activity (IC50).

Assay [3] deals with phosphorylation of Serine-9 residue in Glycogen Synthase Kinase-3beta as surrogate marker of cellular PKB (Akt) activity. Put plainly: In vitro MDA-MB-468 human breast adenocarcinoma GSK-3 phosphorylation assay. The format is cell-based. The following applies: MDA-MB-468 cells, 2 hours compound incubation, mean IC50, read-out: Cell pGSK3b IC50. Summed up: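 MDA-MB-468 cells (5000/well) were treated with compound for 2 h at 37° C, then fixed and immunostained for phospho-Ser9 GSK-3β with an Alexa Fluor 488 secondary antibody. Fluorescence was quantified on an Acumen Explorer. IC50 came from a background-corrected 4-parameter logistic fit with minimum set to zero; obvious outliers were excluded from means.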

T1 sequence (P31751 with tags, fused parts or gaps limits assumed): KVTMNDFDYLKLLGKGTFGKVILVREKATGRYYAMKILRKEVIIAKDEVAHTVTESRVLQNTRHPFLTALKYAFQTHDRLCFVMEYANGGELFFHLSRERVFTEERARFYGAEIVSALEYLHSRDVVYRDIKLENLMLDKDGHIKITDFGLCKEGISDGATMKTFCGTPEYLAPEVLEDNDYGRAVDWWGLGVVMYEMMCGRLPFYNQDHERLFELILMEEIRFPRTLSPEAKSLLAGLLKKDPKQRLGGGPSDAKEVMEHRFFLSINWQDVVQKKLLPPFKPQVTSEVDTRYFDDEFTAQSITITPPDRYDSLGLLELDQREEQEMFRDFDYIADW

Turning to `NC1(c2nc3ccc(F)cc3[nH]2)CCN(c2ncnc3[nH]ccc23)CC1` [Example 6, 4-(6-Fluoro-1H-benzoimidazol-2-yl)-1-(7H-pyrrolo[2,3-d]pyrimidin-4-yl)-piperidin-4-ylamine], the 50% inhibitory concentration (IC50) in assay [1] was below 100 nM; in assay [2] it was below 1000 nM; in assay [3] it was 560 nM.

For the molecule `Cc1ccc2nc(C3(N)CCN(c4ncnc5[nH]cnc45)CC3)[nH]c2c1` [Example 17, 4-(6-Methyl-1H-benzoimidazol-2-yl)-1-(9H-purin-6-yl)-piperidin-4-ylamine], the IC50 in assay [1] is below 100 nM; in assay [2] it was below 1000 nM; in assay [3], 320 nM.
